# Assay results: US8003670B2, “Aminoalkoxy aryl sulfonamide compounds and their use as 5-HT6 ligands” (Suven Life Sciences Limited, priority 2007, dated 2011)
# pKi: −log10 of the molar value. Structures can show the parent of a compound that is named as a salt.
# Key:
# 5-HT6 receptor [1] = target: T1, 5-HT6 receptor (Homo sapiens, UniProt P50406); test: Binding assay for human 5-HT6 receptor ([3H]LSD radioligand); parameters: expressed in transfected cells; host or cells: HEK293; conditions: human recombinant receptor in HEK293 cells, [3H]LSD 1.5 nM; for pKi: 37° C., read-out: Radioligand binding data at 5-HT6 R (h) Ki; for inhibition at 0.1 µM: 100 nM test compound, read-out: Radioligand binding data at 5-HT6 R (h) % Inhibition of specific binding at 100 nM
# Protocol: Compounds can be tested according to the following the procedures.
# Receptor source: Human recombinant expressed in HEK293 cells
# Radioligand: [^3H]LSD (60-80 Ci/mmol)
# Final ligand concentration—[1.5 nM]
# Non-specific determinant: Methiothepin mesylate—[0.1 μM]
# Reference compound: Methiothepin mesylate
# Positive control: Methiothepin mesylate
# Reactions were carried out in […] TRIS-HCl (pH 7.4) containing […] MgCl2, 0.5 mM EDTA for […] at 37° C. The reaction was terminated by rapid vacuum filtration onto glass fiber filters. Radioactivity trapped onto the filters was determined and compared to control values in order to ascertain any interactions of test compound(s) with the cloned serotonin 5-HT6 binding site.
# Mol. Pharmacol. (43): 320-327 (1993).
# 5-HT6 receptor [2] = target: T1, 5-HT6 receptor; conditions: literature; cited from earlier work
# [3] = test system: animal models for schizophrenia; conditions: literature (Pouzet et al. 2002); cited from earlier work
# T1 sequence (P50406 whole entry): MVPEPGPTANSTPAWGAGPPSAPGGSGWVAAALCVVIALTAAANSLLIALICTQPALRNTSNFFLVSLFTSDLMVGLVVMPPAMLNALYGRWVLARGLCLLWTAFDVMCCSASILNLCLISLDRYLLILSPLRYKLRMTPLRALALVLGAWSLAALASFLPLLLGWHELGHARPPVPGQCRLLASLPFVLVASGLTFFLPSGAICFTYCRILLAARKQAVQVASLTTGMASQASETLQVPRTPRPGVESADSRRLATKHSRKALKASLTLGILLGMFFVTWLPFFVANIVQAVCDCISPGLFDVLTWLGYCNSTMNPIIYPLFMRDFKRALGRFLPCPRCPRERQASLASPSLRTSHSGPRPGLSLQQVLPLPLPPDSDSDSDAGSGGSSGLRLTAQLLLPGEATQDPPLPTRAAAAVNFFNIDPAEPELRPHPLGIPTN
structure (smiles),measurement,setting,value
"CCc1ccc(S(=O)(=O)n2ccc3ccccc32)cc1OCCCN(C)C [Example 31, 1-[4′-Ethyl-3′-(N,N-dimethylaminopropoxy)benzenesulfonyl]-1H-indole]",pKi,5-HT6 receptor [1],7.45
CCc1ccc(S(=O)(=O)n2cc(Br)c3cc(F)ccc32)cc1OC1CCNCC1.Cl,melting point,,289.9 to 291.5 °C
"Cc1ccc(S(=O)(=O)n2ccc3cc(Br)ccc32)cc1OCCN(C)C [Example 12, 5-Bromo-1-[4′-methyl-3′-(N,N-dimethylaminoethoxy)benzenesulfonyl]-1H-indole]",pKi,5-HT6 receptor [1],7.55
"Cc1ccc(S(=O)(=O)n2ccc3ccccc32)cc1OCCN(C)C [Example 10, 1-[4′-Methyl-3′-(N,N-dimethylaminoethoxy)benzenesulfonyl]-1H-indole]",pKi,5-HT6 receptor [1],8.56
"Cc1ccc(S(=O)(=O)n2ccc3ccccc32)cc1OCCCN(C)C [Example 16, 1-[4′-Methyl-3′-(N,N-dimethylaminopropoxy)benzenesulfonyl]-1H-indole]",pKi,5-HT6 receptor [1],8.73
"CCc1ccc(S(=O)(=O)n2ccc3cc(Br)ccc32)cc1OCCCN(C)C [Example 32, 5-Bromo-1-[4′-Ethyl-3′-(N,N-dimethylaminopropoxy)benzenesulfonyl]-1H-indole]",pKi,5-HT6 receptor [1],8.12
"Cc1ccc(S(=O)(=O)n2ccc3ccc(Cl)cc32)cc1OCCN(C)C [Example 15, 6-Chloro-1-[4′-methyl-3′-(N,N-dimethylaminoethoxy)benzenesulfonyl]-1H-indole]",pKi,5-HT6 receptor [1],8.80
"CCc1ccc(S(=O)(=O)n2ccc3ccccc32)cc1OCCN(C)C [Example 26, 1-[4′-Ethyl-3′-(N,N-dimethylaminoethoxy)benzenesulfonyl]-1H-indole]",pKi,5-HT6 receptor [1],8.72
"COc1ccc2c(ccn2S(=O)(=O)c2ccc(C(C)C)c(OCCCN(C)C)c2)c1 [Example 43, 1-[4′-Isopropyl-3′-(N,N-dimethylaminopropoxy)benzenesulfonyl]-5-Methoxy-1H-indole]",pKi,5-HT6 receptor [1],7.20
"Cc1ccc(S(=O)(=O)n2ccc3ccc(Cl)cc32)cc1OCCCN(C)C [Example 21, 6-Chloro-1-[4′-methyl-3′-(N,N-dimethylaminopropoxy)benzenesulfonyl]-1H-indole]",pKi,5-HT6 receptor [1],7.88
"CCOc1ccc2c(ccn2S(=O)(=O)c2ccc(C)c(OCCCN(C)C)c2)c1 [Example 20, 5-Ethoxy-1-[4′-methyl-3′-(N,N-dimethylaminopropoxy)benzenesulfonyl]-1H-indole]",pKi,5-HT6 receptor [1],7.91
"CCc1ccc(S(=O)(=O)n2ccc3cc(F)ccc32)cc1OCCCN(C)C [Example 35, 1-[4′-Ethyl-3′-(N,N-dimethylaminopropoxy)benzenesulfonyl]-5-fluoro-1H-indole]",pKi,5-HT6 receptor [1],7.73
"Cc1ccc(S(=O)(=O)n2ccc3cc(F)ccc32)cc1OCCCN(C)C [Example 17, 5-Fluoro-1-[4′-Methyl-3′-(N,N-dimethylaminopropoxy)benzenesulfonyl]-1H-indole]",pKi,5-HT6 receptor [1],7.90
"Cc1ccc(S(=O)(=O)n2ccc3cc(F)ccc32)cc1OC1CCN(C)CC1 [Example 24, 5-Fluoro-1-(4′-methyl-3′-(1-methylpiperidin-4-yloxy)benzenesulfonyl)-1H-indole hydrochloride]",inhibition at 0.1 µM,5-HT6 receptor [1],89.4%
CN1CCN2c3ccccc3Cc3ccccc3C2C1 (stereo not drawn) [mianserin],Affinity for the 5-HT6 receptor (in words),5-HT6 receptor [2],high affinity
"COc1ccc2c(c1)c(C)cn2S(=O)(=O)c1ccc(C(C)C)c(OC2CCN(C)CC2)c1 [Example 61, 5-Methoxy-3-methyl-1-[4′-isopropyl-3′-(1-methylpiperidin-4-yloxy)benzenesulfonyl]-1H-indole]",melting point,,73.2 to 74.5 °C
"CC(C)c1ccc(S(=O)(=O)n2ccc3cc(F)ccc32)cc1OC1CCN(C)CC1 [Example 53, 5-Fluoro-1-[4′-isopropyl-3′-(1-methylpiperidin-4-yloxy)benzenesulfonyl]-1H-indole]",inhibition at 0.1 µM,5-HT6 receptor [1],66.9%
same,melting point,,73.2 to 74.5 °C
"COc1ccc2c(ccn2S(=O)(=O)c2ccc(C(C)C)c(OC3CCN(C)CC3)c2)c1 [Example 52, 5-Methoxy-1-[4′-isopropyl-3′-(1-methylpiperidin-4-yloxy)benzenesulfonyl]-1H-indole]",inhibition at 0.1 µM,5-HT6 receptor [1],31.5%
"COc1ccc(S(=O)(=O)n2ccc3cc(F)ccc32)cc1OC1CCN(C)CC1 [Example 58, 5-Fluoro-1-[4′-methoxy-3′-(1-methylpiperidin-4-yloxy)benzenesulfonyl]-1H-indole]",inhibition at 0.1 µM,5-HT6 receptor [1],91.6%
"COc1ccc2c(ccn2S(=O)(=O)c2cccc(OC3CCN(C)CC3)c2)c1 [Example 9, 5-Methoxy-1-[3′-(1-methylpiperidin-4-yloxy)benzenesulfonyl]-1H-indole]",inhibition at 0.1 µM,5-HT6 receptor [1],58.2%
"COc1ccc(NS(=O)(=O)c2sc3ccc(Cl)cc3c2C)cc1N1CCNCC1 [SB-271046, 5-Chloro-N-(4-methoxy-3-piperazin-1-ylphenyl)-3-methyl-2-benzothiophenesulfonamide]",Activity in animal tests related to positive or negative symptoms of schizophrenia,[3],inactive
"Cc1ccc(S(=O)(=O)n2cc(C)c3ccccc32)cc1OC1CCN(C)CC1 [Example 54, 3-Methyl-1-[4′-methyl-3′-(1-methylpiperidin-4-yloxy)benzenesulfonyl]-1H-indole]",inhibition at 0.1 µM,5-HT6 receptor [1],99.7%
"CCc1ccc(S(=O)(=O)n2ccc3cc(OC)ccc32)cc1OC1CCN(C)CC1 [Example 55, 5-Methoxy-1-[4-ethyl-3-(1-methylpiperidin-4-yloxy)benzenesulfonyl]-1H-indole]",inhibition at 0.1 µM,5-HT6 receptor [1],89%
"COc1ccc(S(=O)(=O)n2ccc3ccc(Cl)cc32)cc1OC1CCN(C)CC1 [Example 62, 6-Chloro-1-[4′-methoxy-3′-(1-methylpiperidin-4-yloxy)benzenesulfonyl]-1H-indole]",melting point,,112 to 115 °C
"Cc1ccc(S(=O)(=O)n2ccc3cc(F)ccc32)cc1OCCN(C)C [Example 11, 5-Fluoro-1-[4′-methyl-3′-(N,N-dimethylaminoethoxy)benzenesulfonyl]-1H-indole]",pKi,5-HT6 receptor [1],8.23
Cl.O=S(=O)(c1ccc(Cl)c(OC2CCNCC2)c1)n1ccc2ccc(Cl)cc21,melting point,,258.3 to 259.5 °C
"COc1ccc2c(ccn2S(=O)(=O)c2ccc(C)c(OCCCN(C)C)c2)c1 [Example 19, 1-[4′-Methyl-3′-(N,N-dimethylaminopropoxy)benzenesulfonyl]-5-methoxy-1H-indole]",pKi,5-HT6 receptor [1],7.51
"CCc1ccc(S(=O)(=O)n2ccc3cc(F)ccc32)cc1OCCN(C)C [Example 30, 1-[4′-Ethyl-3′-(N,N-dimethylaminoethoxy)benzenesulfonyl]-5-fluoro-1H-indole]",pKi,5-HT6 receptor [1],8.26
CCc1ccc(S(=O)(=O)n2ccc3cc(F)ccc32)cc1OC1CCNCC1.Cl,melting point,,201.46 to 204.21 °C
"CN1CCC(Oc2cc(S(=O)(=O)n3ccc4cc(F)ccc43)ccc2Cl)CC1 [Example 59, 5-Fluoro-1-[4′-chloro-3′-(1-methylpiperidin-4-yloxy)benzenesulfonyl]-1H-indole]",inhibition at 0.1 µM,5-HT6 receptor [1],89.8%
"Cc1ccc(S(=O)(=O)n2ccc3cc(Br)ccc32)cc1OCCCN(C)C [Example 18, 5-Bromo-1-[4′-Methyl-3′-(N,N-dimethylaminopropoxy)benzenesulfonyl]-1H-indole]",pKi,5-HT6 receptor [1],7.93
"COc1ccc2c(ccn2S(=O)(=O)c2ccc(OC)c(OC3CCNCC3)c2)c1.Cl [Example 56, 5-Methoxy-1-[4′-methoxy-3′-(piperidin-4-yloxy)benzenesulfonyl]-1H-indole hydrochloride]",inhibition at 0.1 µM,5-HT6 receptor [1],88.6%
same,melting point,,231.2 to 232.7 °C
"CCc1ccc(S(=O)(=O)n2cc(Br)c3cc(F)ccc32)cc1OC1CCN(C)CC1 [Example 67, 3-Bromo-5-fluoro-1-[4′-ethyl-3′-(1-methylpiperidin-4-yloxy)benzenesulfonyl]-1H-indole]",melting point,,133.2 to 134.5 °C
"Cc1ccc(S(=O)(=O)n2ccc3c(Cl)cccc32)cc1OCCCN(C)C [Example 79, 4-Chloro-1-[4′-Methyl-3′-(N,N-dimethylaminopropoxy)benzenesulfonyl]-1H-indole]",pKi,5-HT6 receptor [1],7.87
"COc1ccc2c(ccn2S(=O)(=O)c2ccc(C)c(OCCN(C)C)c2)c1 [Example 13, 1-[4′-Methyl-3′-(N,N-dimethylaminoethoxy)benzenesulfonyl]-5-methoxy-1H-indole]",pKi,5-HT6 receptor [1],7.95
"COc1ccc(S(=O)(=O)n2ccc3cc(Br)ccc32)cc1OC1CCN(C)CC1 [Example 63, 5-Bromo-1-[4′-methoxy-3′-(1-methylpiperidin-4-yloxy)benzenesulfonyl]-1H-indole]",melting point,,127.2 to 128 °C
"CC(C)c1ccc(S(=O)(=O)n2ccc3ccccc32)cc1OCCN(C)C [Example 36, 1-[4′-Isopropyl-3′-(N,N-dimethylaminoethoxy)benzenesulfonyl]-1H-indole]",pKi,5-HT6 receptor [1],7.86
"CCc1ccc(S(=O)(=O)n2ccc3ccc(Cl)cc32)cc1OCCCN(C)C [Example 33, 1-[4′-Ethyl-3′-(N,N-dimethylaminopropoxy)benzenesulfonyl]-6-chloro-1H-indole]",pKi,5-HT6 receptor [1],8.24
CN(C)CCC=C1c2ccccc2CCc2ccccc21 [amitriptyline],Affinity for the 5-HT6 receptor (in words),5-HT6 receptor [2],high affinity
"CN1CCC(Oc2cccc(S(=O)(=O)n3ccc4cc(F)ccc43)c2)CC1 [Example 8, 5-Fluoro-1-[3′-(1-methylpiperidin-4-yloxy)benzenesulfonyl]-1H-indole]",inhibition at 0.1 µM,5-HT6 receptor [1],61.7%
